Non-standard residues stand in square brackets, D forms with d. Residues, ends and D or L forms follow the SMILES beside them. *: point of attachment. Trp(6-Cl) = N[C@@H](Cc1c[nH]c2cc(Cl)ccc12)C(=O)O; Pip = O=C(O)[C@@H]1CCCCN1; ClAc = O=C(CCl)*
Assays:
[1] = Stability in plasma from esterase-deficient (ES1e) mice; format: in vitro ADME; conditions: mouse, 37°C, up to 6 h, acetonitrile quench, LC-MS/MS
Experimental: (§1) A solution of a Pin1 inhibitor was spiked into blank plasma at 1 μg/mL in various solutions, including an aqueous buffer (1× phosphate-buffered saline; Fisher Scientific, Fair Lawn, NJ), human plasma (Innovative Research Inc., Novi, MI), wild-type mouse plasma (Innovative Research Inc., Novi, MI), plasma form esterase-deficient mice (City of Hope, Duarte, CA), and plasma from Black 6-Cg mice (City of Hope, Duarte, CA).
(§2) The spiked plasma samples were incubated at 37°C for up to 6 h. At each designated time point, a 20 μL aliquot of the incubation sample was removed and quenched in 100 μL of acetonitrile. At the end of the incubation, the quenched samples were vortexed and centrifuged for 10 min at 4°C and 20,000 × g. The resulting supernatant was reconstituted and analyzed by LC-MS/MS.
(§3) Table S2. Stability half-life of agents reported in Table 1 after incubation at 37 °C in various media. Acq represents aqueous buffer composed of 1x phosphate buffered saline (Fisher Scientific, Fair Lawn, NJ); human represents human plasma (Innovative Research Inc., Novi, MI); mouse wt represents wild type mouse plasma (Innovative Research Inc., Novi, MI); mouse ES1e represents plasma form esterase deficient mice (City of Hope, Duarte, CA); mouse B6-Cg represents plasma from black 6-Cg mice (City of Hope, Duarte, CA). See Figure 1 for the chemical structures of these compounds.
(§4) Compound Acq Human Mouse Mouse ES1e Mouse

Human plasma stability = format: in vitro ADME; conditions: 37°C, up to 6 h, acetonitrile quench, LC-MS/MS
Experimental: as §1, §2, §3, §4

[2] = Stability in aqueous buffer (1x PBS); format: physicochemical; conditions: 1x phosphate buffered saline, 1 μg/mL, 37°C, up to 6 h, acetonitrile quench, LC-MS/MS
Experimental: as §1, §2, §3, §4

[3] = Wild-type mouse plasma stability; format: in vitro ADME; conditions: 37°C, up to 6 h, acetonitrile quench, LC-MS/MS, values given in min, read-out: Stability half-life, Mouse WT (converted)
Experimental: as §1, §2, §3, §4

[4] = Stability in plasma from Black 6-Cg mice; format: in vitro ADME; conditions: Black 6-Cg (B6-Cg), mouse, 37°C, up to 6 h, acetonitrile quench, LC-MS/MS
Experimental: as §1, §2, §3, §4

Compound	half-life at 1 μg/mL [1]	half-life at 1 μg/mL (Human plasma stability)	Stability half-life, Acq (aqueous buffer) [2]	half-life at 1 μg/mL [3]	half-life at 1 μg/mL [4]
NC(=O)[C@H](Cc1c[nH]c2ccccc12)NC(=O)[C@@H]1CCCCN1C(=O)[C@H](Cc1c[nH]c2cc(Cl)ccc12)NC(=O)CCl [158H9] (ClAc-[Trp(6-Cl)]-[Pip]-Trp-NH2)	> 5 h	~3 h	> 5 h	~0.5 h	> 5 h
NC(=O)[C@H](Cc1c[nH]c2ccc(F)cc12)NC(=O)[C@@H]1CCCCN1C(=O)[C@@H]1Cc2c([nH]c3ccccc23)CN1C(=O)CCl [164A10]	~2.5 h	~2.5 h	> 5 h	< 0.167 h	~2.5 h
